# Patent US10246426B2, “Triazole compounds as T-type calcium channel blockers” (IDORSIA PHARMACEUTICALS LTD, priority 2014, dated 2019)
# Biological target: Cav3.2 (Homo sapiens, UniProt O95180)
# Test: Calcium flux FLIPR assay, HEK293 cells recombinantly expressing Cav3.2
# Format: cell-based
# Conditions: Cav3.2-channel, Ca2+ entry stimulated by 10 mM CaCl2
# Procedure: In Vitro Methods—Measurement of Calcium Channel Flux by Means of FLIPR Assays.
# HEK293 cells recombinantly expressing either voltage-dependent T-type calcium channel subunit […] (Cav3.2) or voltage-dependent L-type calcium channel subunit alpha-1C (Cav1.2) are assayed for calcium flux using the calcium indicator dye Fluo-4-AM (Molecular Devices) and FLIPR technology (Fluorometric Imaging Plate Reader, Molecular Devices) (Xie X, Van Deusen A L, Vitko I, Babu D A, Davies L A, Huynh N, Cheng H, Yang N, Barrett P Q, Perez-Reyes E. Validation of high throughput screening assays against three subtypes of Ca(v)3 T-type channels using molecular and pharmacologic approaches. Assay and Drug Development Technologies 2007, 5(2), 191-203). The HEK293 cells recombinantly expressing Cav3.2 are maintained in DMEM growth medium (Life Technologies) supplemented with 10% Fetal Bovine Serum (FBS), 100 U/ml penicilin (Life Technologies), 100 μg/ml streptomycin (Life Technologies) and 1 mg/ml G418 (Life Technologies). HEK293 cells recombinantly expressing Cav1.2 are maintained in DMEM growth medium (Life technologies) supplemented with 10% FBS, 0.1 mg/ml G418 (Life Technologies), 0.1 mg/ml hygromycin (Life Technologies) and 40 ug/ml zeocin (Life Technologies).
# Cells are washed once with PBS, then dissociated in 0.25% trypsin/EDTA (Life Technologies) and seeded into poly-D-lysine coated 384-well black, clear bottom plates (BD Biosciences) at a density of 30,000 cells/well. The seeded plates are incubated overnight at 37° C.
# Immediately prior to performing the assay, medium is removed and cells are treated for 1 hour at 37° C. with loading buffer containing HBSS 1× (137 mM NaCl; 5.4 mM KCl; 0.25 mM Na2HPO4; 1.3 mM CaCl2; 0.4 mM MgSO04; 0.5 mM MgCl2; 0.4 mM KH2PO4, pH 7.4), 0.375 g/L NaHCO3, 20 mM Hepes, supplemented with 3 μM Fluo-4-AM and 0.15% Pluronic (Life Technologies). The cells are then washed three times with assay buffer (HBSS 1×; 0.375 g/L NaHCO3; 20 mM Hepes; 1% FBS; pH 7.4) and allowed to rest in 50 μl of wash buffer for 30 minutes.
# Stock solutions of test compounds are prepared to a concentration of 10 mM in DMSO. For the Cav3.2 assay, serial dilutions of the compounds are prepared in TEAC buffer (100 mM tetraethylammonium chloride; 20 mM Hepes; 2.5 mM CaCl2; 5 mM KCl; 1 mM MgCl2; 1% FBS; pH 7.2), for the Cav1.2 assay serial dilutions are prepared in assay buffer. […] The compounds are incubated with the cells for 3 minutes and Ca2+ entry is stimulated by adding either CaCl2 to a final concentration of 10 mM (Cav3.2 assay) or by adding KCl to a final concentration of 20 mM (Cav1.2 assay). The kinetics of fluorescence increase are recorded for every well and the area under the fluorescence trace for every compound concentration is used to generate inhibition curves using non-linear regression sigmoidal concentration-response curve analysis with in-house software. IC50 values are calculated and represent the compound concentration required to inhibit 50% of the signal that is obtained in the presence of vehicle instead of test compound.
# Chain of Cav3.2 (O95180 whole entry, looked up): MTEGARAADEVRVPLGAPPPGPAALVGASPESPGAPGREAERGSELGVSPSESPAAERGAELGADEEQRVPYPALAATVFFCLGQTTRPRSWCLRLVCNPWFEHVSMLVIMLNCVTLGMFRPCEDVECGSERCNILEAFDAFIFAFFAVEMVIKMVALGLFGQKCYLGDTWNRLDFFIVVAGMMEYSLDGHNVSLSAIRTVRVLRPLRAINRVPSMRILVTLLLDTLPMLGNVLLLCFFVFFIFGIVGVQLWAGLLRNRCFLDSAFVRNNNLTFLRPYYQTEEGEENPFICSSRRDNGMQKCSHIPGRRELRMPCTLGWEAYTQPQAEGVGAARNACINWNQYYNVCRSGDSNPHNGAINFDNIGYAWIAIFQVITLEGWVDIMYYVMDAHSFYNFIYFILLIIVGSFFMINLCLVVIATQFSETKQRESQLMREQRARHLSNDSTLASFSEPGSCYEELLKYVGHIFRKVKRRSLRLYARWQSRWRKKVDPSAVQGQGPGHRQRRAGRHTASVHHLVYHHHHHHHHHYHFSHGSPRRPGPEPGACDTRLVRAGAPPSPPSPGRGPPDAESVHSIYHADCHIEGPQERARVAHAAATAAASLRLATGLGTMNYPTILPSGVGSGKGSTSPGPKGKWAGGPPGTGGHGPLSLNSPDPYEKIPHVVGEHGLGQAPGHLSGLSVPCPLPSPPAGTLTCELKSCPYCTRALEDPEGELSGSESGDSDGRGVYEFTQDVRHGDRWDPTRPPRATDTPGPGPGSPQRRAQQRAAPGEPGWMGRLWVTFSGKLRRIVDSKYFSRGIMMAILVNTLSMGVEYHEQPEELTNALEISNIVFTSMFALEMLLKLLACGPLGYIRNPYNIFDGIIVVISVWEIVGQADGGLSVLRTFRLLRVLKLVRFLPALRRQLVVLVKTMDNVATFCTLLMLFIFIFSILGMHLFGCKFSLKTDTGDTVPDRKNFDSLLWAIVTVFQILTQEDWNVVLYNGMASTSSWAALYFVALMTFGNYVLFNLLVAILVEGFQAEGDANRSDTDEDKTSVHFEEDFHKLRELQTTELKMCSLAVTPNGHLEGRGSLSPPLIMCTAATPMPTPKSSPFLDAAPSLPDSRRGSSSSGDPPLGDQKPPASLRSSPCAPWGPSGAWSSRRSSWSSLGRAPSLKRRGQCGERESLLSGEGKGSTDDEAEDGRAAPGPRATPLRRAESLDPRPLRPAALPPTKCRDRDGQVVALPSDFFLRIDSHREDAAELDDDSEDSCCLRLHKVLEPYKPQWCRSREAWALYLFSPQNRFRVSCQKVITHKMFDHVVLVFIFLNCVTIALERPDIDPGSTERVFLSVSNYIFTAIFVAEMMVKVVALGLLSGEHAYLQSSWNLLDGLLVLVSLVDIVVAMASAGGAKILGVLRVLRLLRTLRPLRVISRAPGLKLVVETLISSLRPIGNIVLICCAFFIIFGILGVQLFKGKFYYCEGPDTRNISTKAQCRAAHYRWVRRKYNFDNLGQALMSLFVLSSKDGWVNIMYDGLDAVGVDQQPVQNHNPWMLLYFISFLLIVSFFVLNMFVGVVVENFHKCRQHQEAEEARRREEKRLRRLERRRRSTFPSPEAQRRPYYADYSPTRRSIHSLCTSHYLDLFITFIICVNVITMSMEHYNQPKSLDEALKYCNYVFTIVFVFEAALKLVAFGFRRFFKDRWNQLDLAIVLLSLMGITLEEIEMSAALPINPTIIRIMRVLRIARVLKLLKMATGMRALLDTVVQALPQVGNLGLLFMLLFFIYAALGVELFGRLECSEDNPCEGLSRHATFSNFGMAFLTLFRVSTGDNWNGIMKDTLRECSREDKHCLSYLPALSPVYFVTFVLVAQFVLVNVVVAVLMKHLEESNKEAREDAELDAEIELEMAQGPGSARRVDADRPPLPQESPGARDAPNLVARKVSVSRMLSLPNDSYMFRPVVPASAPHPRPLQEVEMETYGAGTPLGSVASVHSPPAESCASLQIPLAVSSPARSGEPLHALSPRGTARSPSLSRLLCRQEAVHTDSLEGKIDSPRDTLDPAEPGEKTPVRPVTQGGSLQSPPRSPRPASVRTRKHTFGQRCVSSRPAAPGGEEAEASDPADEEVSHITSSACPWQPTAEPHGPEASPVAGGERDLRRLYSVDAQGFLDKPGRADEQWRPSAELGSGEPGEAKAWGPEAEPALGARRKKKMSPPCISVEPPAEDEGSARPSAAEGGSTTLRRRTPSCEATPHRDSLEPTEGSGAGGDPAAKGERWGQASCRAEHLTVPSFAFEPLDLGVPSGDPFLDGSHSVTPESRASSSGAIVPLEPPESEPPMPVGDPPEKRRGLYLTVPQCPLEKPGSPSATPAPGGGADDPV
row,IC50 [nM],Compound
1,74,"CC1(c2ccc(CC(=O)Nc3cnn(Cc4ccc(C#N)c(F)c4)n3)cc2)COC1 [Example 72, N-[2-(4-Cyano-3-fluoro-benzyl)-2H-[1,2,3]triazol-4-yl]-2-[4-(3-methyl-oxetan-3-yl)-phenyl]-acetamide]"
2,37,"CC(C)(C)c1ccc(CC(=O)Nc2cnn(Cc3ccc(C#N)c(F)c3)n2)cc1 [Example 73, 2-(4-tert-Butyl-phenyl)-N-[2-(4-cyano-3-fluoro-benzyl)-2H-[1,2,3]triazol-4-yl]-acetamide]"
3,45,"CC(C)c1ccc(CC(=O)Nc2cnn(Cc3ccc(C#N)c(F)c3)n2)cc1 [Example 74, N-[2-(4-Cyano-3-fluoro-benzyl)-2H-[1,2,3]triazol-4-yl]-2-(4-isopropyl-phenyl)-acetamide]"
4,87,"N#Cc1ccc(Cn2ncc(NC(=O)Cc3ccc(N4CCCC4)nc3)n2)cc1F [Example 75, N-[2-(4-Cyano-3-fluoro-benzyl)-2H-[1,2,3]triazol-4-yl]-2-(6-pyrrolidin-1-yl-pyridin-3-yl)-acetamide]"
5,120,"Cn1ncc2cc(CC(=O)Nc3cnn(Cc4ccc(C#N)c(F)c4)n3)ccc21 [Example 76, N-[2-(4-Cyano-3-fluoro-benzyl)-2H-[1,2,3]triazol-4-yl]-2-(1-methyl-1H-indazol-5-yl)-acetamide]"
6,13,"COc1c(F)cc(Cn2ncc(NC(=O)Cc3ccc4c(ccn4C)c3)n2)cc1F [Example 77, N-[2-(3,5-Difluoro-4-methoxy-benzyl)-2H-[1,2,3]triazol-4-yl]-2-(1-methyl-1H-indol-5-yl)-acetamide]"
7,49,"COc1c(F)cc(Cn2ncc(NC(=O)Cc3ccc(C4(C)COC4)cc3)n2)cc1F [Example 78, N-[2-(3,5-Difluoro-4-methoxy-benzyl)-2H-[1,2,3]triazol-4-yl]-2-[4-(3-methyl-oxetan-3-yl)-phenyl]-acetamide]"
8,46,"COc1c(F)cc(Cn2ncc(NC(=O)Cc3ccc(C(C)(C)C)cc3)n2)cc1F [Example 79, 2-(4-tert-Butyl-phenyl)-N-[2-(3,5-difluoro-4-methoxy-benzyl)-2H-[1,2,3]triazol-4-yl]-acetamide]"
9,29,"COc1c(F)cc(Cn2ncc(NC(=O)Cc3ccc(C(C)C)cc3)n2)cc1F [Example 80, N-[2-(3,5-Difluoro-4-methoxy-benzyl)-2H-[1,2,3]triazol-4-yl]-2-(4-isopropyl-phenyl)-acetamide]"
10,28,"COc1c(F)cc(Cn2ncc(NC(=O)Cc3ccc(N4CCCC4)nc3)n2)cc1F [Example 81, N-[2-(3,5-Difluoro-4-methoxy-benzyl)-2H-[1,2,3]triazol-4-yl]-2-(6-pyrrolidin-1-yl-pyridin-3-yl)-acetamide]"
11,23,"COc1c(F)cc(Cn2ncc(NC(=O)Cc3ccc4c(cnn4C)c3)n2)cc1F [Example 82, N-[2-(3,5-Difluoro-4-methoxy-benzyl)-2H-[1,2,3]triazol-4-yl]-2-(1-methyl-1H-indazol-5-yl)-acetamide]"
12,130,"COCCOc1ccc(Cn2ncc(NC(=O)Cc3ccc(C(C)(C)C)cc3)n2)cc1 [Example 86, 2-(4-tert-Butyl-phenyl)-N-{2-[4-(2-methoxy-ethoxy)-benzyl]-2H-[1,2,3]triazol-4-yl}-acetamide]"
13,460,"COCCOc1ccc(Cn2ncc(NC(=O)Cc3ccc4c(ccn4C)c3)n2)cc1 [Example 87, N-{2-[4-(2-Methoxy-ethoxy)-benzyl]-2H-[1,2,3]triazol-4-yl}-2-(1-methyl-1H-indol-5-yl)-acetamide]"
14,56,"CC(C)(C)c1ccc(CC(=O)Nc2cnn(Cc3ccc(OC(F)F)cc3)n2)cc1 [Example 88, 2-(4-tert-Butyl-phenyl)-N-[2-(4-difluoromethoxy-benzyl)-2H-[1,2,3]triazol-4-yl]-acetamide]"
15,20,"Cn1ccc2cc(CC(=O)Nc3cnn(Cc4ccc(OC(F)F)cc4)n3)ccc21 [Example 89, N-[2-(4-Difluoromethoxy-benzyl)-2H-[1,2,3]triazol-4-yl]-2-(1-methyl-1H-indol-5-yl)-acetamide]"
16,200,"CC(C)(C)c1ccc(CC(=O)Nc2cnn(Cc3ccc(OC(F)(F)F)cc3)n2)cc1 [Example 90, 2-(4-tert-Butyl-phenyl)-N-[2-(4-trifluoromethoxy-benzyl)-2H-[1,2,3]triazol4-yl]-acetamide]"
17,7.4,"Cn1ccc2cc(CC(=O)Nc3cnn(Cc4ccc(OC(F)(F)F)cc4)n3)ccc21 [Example 91, 2-(1-Methyl-1H-indol-5-yl)-N-[2-(4-trifluoromethoxy-benzyl)-2H-[1,2,3]triazol-4-yl]-acetamide]"
18,9.9,"Cn1ncc2cc(CC(=O)Nc3cnn(Cc4ccc(OC(F)(F)F)cc4)n3)ccc21 [Example 92, 2-(1-Methyl-1H-indazol-5-yl)-N-[2-(4-trifluoromethoxy-benzyl)-2H-[1,2,3]triazol-4-yl]-acetamide]"
19,15,"CC1(c2ccc(CC(=O)Nc3cnn(Cc4ccc(OC(F)(F)F)cc4)n3)cc2)COC1 [Example 93, 2-[4-(3-Methyl-oxetan-3-yl)-phenyl]-N-[2-(4-trifluoromethoxy-benzyl)-2H-[1,2,3]triazol-4-yl]-acetamide]"
20,10,"O=C(Cc1ccc(N2CCC(F)(F)C2)nc1)Nc1cnn(Cc2ccc(F)cc2)n1 [Example 94, 2-[6-(3,3-Difluoro-pyrrolidin-1-yl)-pyridin-3-yl]-N-[2-(4-fluoro-benzyl)-2H-[1,2,3]triazol-4-yl]-acetamide]"
21,46,"CCN(CC)c1ccc(CC(=O)Nc2cnn(Cc3ccc(F)cc3)n2)cn1 [Example 95, 2-(6-Diethylamino-pyridin-3-yl)-N-[2-(4-fluoro-benzyl)-2H-[1,2,3]triazol-4-yl]-acetamide]"
22,44,"CC(C)(C)c1ccc(CC(=O)Nc2cnn(Cc3ccc(C#N)cc3)n2)cc1 [Example 96, 2-(4-tert-Butyl-phenyl)-N-[2-(4-cyano-benzyl)-2H-[1,2,3]triazol-4-yl]-acetamide]"
23,36,"N#Cc1ccc(Cn2ncc(NC(=O)Cc3ccc(N4CCC(F)(F)C4)nc3)n2)cc1 [Example 97, N-[2-(4-Cyano-benzyl)-2H-[1,2,3]triazol-4-yl]-2-[6-(3,3-difluoro-pyrrolidin-1-yl)-pyridin-3-yl]-acetamide]"
24,83,"N#Cc1ccc(Cn2ncc(NC(=O)Cc3ccc(N4CCCC4)nc3)n2)cc1 [Example 98, N-[2-(4-Cyano-benzyl)-2H-[1,2,3]triazol-4-yl]-2-(6-pyrrolidin-1-yl-pyridin-3-yl)-acetamide]"
25,19,"Cn1ccc2cc(CC(=O)Nc3cnn(Cc4ccc(C#N)cc4)n3)ccc21 [Example 99, N-[2-(4-Cyano-benzyl)-2H-[1,2,3]triazol-4-yl]-2-(1-methyl-1H-indol-5-yl)-acetamide]"
26,22,"Cc1cn(C)c2ccc(CC(=O)Nc3cnn(Cc4ccc(C#N)cc4)n3)cc12 [Example 100, N-[2-(4-Cyano-benzyl)-2H-[1,2,3]triazol4-yl]-2-(1,3-dimethyl-1H-indol-5-yl)-acetamide]"
27,480,"Cn1ncc2ccc(CC(=O)Nc3cnn(Cc4ccc(C#N)cc4)n3)cc21 [Example 101, N-[2-(4-Cyano-benzyl)-2H-[1,2,3]triazol-4-yl]-2-(1-methyl-1H-indazol-6-yl)-acetamide]"
28,160,"Cc1nn(C)c2ccc(CC(=O)Nc3cnn(Cc4ccc(C#N)cc4)n3)cc12 [Example 102, N-[2-(4-Cyano-benzyl)-2H-[1,2,3]triazol-4-yl]-2-(1,3-dimethyl-1H-indazol-5-yl)-acetamide]"
29,74,"CCn1ncc2cc(CC(=O)Nc3cnn(Cc4ccc(C#N)cc4)n3)ccc21 [Example 103, N-[2-(4-Cyano-benzyl)-2H-[1,2,3]triazol-4-yl]-2-(1-ethyl-1H-indazol-5-yl)-acetamide]"
30,70,"CCCn1ncc2cc(CC(=O)Nc3cnn(Cc4ccc(C#N)cc4)n3)ccc21 [Example 104, N-[2-(4-Cyano-benzyl)-2H-[1,2,3]triazol-4-yl]-2-(1-propyl-1H-indazol-5-yl)-acetamide]"
